Laboratory results from PubChem BioAssay AID1919013 (Molecular Pharmacology Branch, DTP, NCI, 2023).

System: LG0703-F498-PDC complex spheroid growth
Test: Anticancer human tumor LG0703-F498-PDC patient-derived lung adenocarcinoma cell line growth inhibition [AhR]
Details: for IC50: curve of first compound; for viability, T/C: stronger effect = lower value
Outline: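 Complex tumor spheroids co-cultured with HUVEC and human MSC stroma; AhR antagonists tested in combination with standard-of-care and investigational agents. Top concentration at or near clinical Cmax (else 10 microM), half-log dilutions; growth expressed as percent test/control.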

[1] = second compound 0.1 µM, first compound 0.00316 µM
[2] = second compound 0.1 µM, first compound 0.01 µM
[3] = second compound 0.1 µM, first compound 0.0316 µM
[4] = second compound 0.1 µM, first compound 0.1 µM
[5] = second compound 0.316 µM, first compound 0.00316 µM
[6] = second compound 0.316 µM, first compound 0.01 µM
[7] = second compound 0.316 µM, first compound 0.0316 µM
[8] = second compound 0.316 µM, first compound 0.1 µM
[9] = second compound 1 µM, first compound 0.00316 µM
[10] = second compound 1 µM, first compound 0.01 µM
[11] = second compound 1 µM, first compound 0.0316 µM
[12] = second compound 1 µM, first compound 0.1 µM
[13] = second compound 3.16 µM, first compound 0.00316 µM
[14] = second compound 3.16 µM, first compound 0.01 µM
[15] = second compound 3.16 µM, first compound 0.0316 µM
[16] = second compound 3.16 µM, first compound 0.1 µM
[17] = second compound 10 µM, first compound 0.00316 µM
[18] = second compound 10 µM, first compound 0.01 µM
[19] = second compound 10 µM, first compound 0.0316 µM
[20] = second compound 10 µM, first compound 0.1 µM
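Further: luminescence taken as a proxy for viable cell amount.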
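Wherever viability, T/C is given: percent of DMSO vehicle control where 100% means growth equal to vehicle.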

Question: With `Nc1ncn(C2CC(O)C(CO)O2)c(=O)n1` (stereo not given) + CC(CO)NC(=O)c1cc(-c2ccc(Cl)cc2)nn(-c2cnn(C)c2)c1=O as the compound, how does the IC50 (second compound 0.1 µM) read?
Answer: > 1000 nM

Question: And the IC50 (second compound 0.316 µM)?
Answer: > 1000 nM

Question: What about the IC50 (second compound 1 µM) of the same compound?
Answer: > 1000 nM

Question: And the IC50 (second compound 3.16 µM)?
Answer: > 1000 nM

Question: And the IC50 (second compound 10 µM)?
Answer: > 1000 nM

Question: What about the viability, T/C [1] of the same compound?
Answer: 85.3%

Question: What about the viability, T/C [2] of the same compound?
Answer: 99.4%

Question: And the viability, T/C [3]?
Answer: 84.8%

Question: And the viability, T/C [4]?
Answer: 91.1%

Question: And the viability, T/C (second compound 0.1 µM, first compound 0.316 µM)?
Answer: 85.9%

Question: What about the viability, T/C (second compound 0.1 µM, first compound 1 µM) of the same compound?
Answer: 78%

Question: What about the viability, T/C [5] of the same compound?
Answer: 81.5%

Question: And the viability, T/C [6]?
Answer: 91.9%

Question: And the viability, T/C [7]?
Answer: 82.2%

Question: And the viability, T/C [8]?
Answer: 87.5%

Question: What about the viability, T/C (second compound 0.316 µM, first compound 0.316 µM) of the same compound?
Answer: 79.2%

Question: And the viability, T/C (second compound 0.316 µM, first compound 1 µM)?
Answer: 76.5%

Question: And the viability, T/C [9]?
Answer: 83.5%

Question: And the viability, T/C [10]?
Answer: 106%

Question: What about the viability, T/C [11] of the same compound?
Answer: 78.5%

Question: What about the viability, T/C [12] of the same compound?
Answer: 79.5%

Question: What about the viability, T/C (second compound 1 µM, first compound 0.316 µM) of the same compound?
Answer: 71.7%

Question: And the viability, T/C (second compound 1 µM, first compound 1 µM)?
Answer: 77.4%

Question: And the viability, T/C [13]?
Answer: 78.7%

Question: And the viability, T/C [14]?
Answer: 80%

Question: And the viability, T/C [15]?
Answer: 88.4%

Question: What about the viability, T/C [16] of the same compound?
Answer: 67.9%

Question: What about the viability, T/C (second compound 3.16 µM, first compound 0.316 µM) of the same compound?
Answer: 80.5%

Question: And the viability, T/C (second compound 3.16 µM, first compound 1 µM)?
Answer: 71.8%

Question: And the viability, T/C [17]?
Answer: 87.4%

Question: And the viability, T/C [18]?
Answer: 80.2%

Question: What about the viability, T/C [19] of the same compound?
Answer: 79.3%

Question: And the viability, T/C [20]?
Answer: 80.3%

Question: And the viability, T/C (second compound 10 µM, first compound 0.316 µM)?
Answer: 69.9%

Question: And the viability, T/C (second compound 10 µM, first compound 1 µM)?
Answer: 72.7%

Question: For `O=C(C=Cn1cnc(-c2cc(C(F)(F)F)cc(C(F)(F)F)c2)n1)NNc1cnccn1` + CC(CO)NC(=O)c1cc(-c2ccc(Cl)cc2)nn(-c2cnn(C)c2)c1=O, which IC50 (second compound 0.1 µM) is on record?
Answer: 60 nM

Question: And the IC50 (second compound 0.316 µM)?
Answer: 45.6 nM

Question: What about the IC50 (second compound 1 µM) of the same compound?
Answer: 57.3 nM

Question: What about the IC50 (second compound 3.16 µM) of the same compound?
Answer: 26.9 nM

Question: And the IC50 (second compound 10 µM)?
Answer: 39.7 nM

Question: And the viability, T/C (second compound 0.1 µM, first compound 0.00949 µM)?
Answer: 68.1%

Question: And the viability, T/C (second compound 0.1 µM, first compound 0.03 µM)?
Answer: 64.5%

Question: And the viability, T/C (second compound 0.1 µM, first compound 0.0949 µM)?
Answer: 40.4%

Question: What about the viability, T/C (second compound 0.1 µM, first compound 0.3 µM) of the same compound?
Answer: 40.6%

Question: And the viability, T/C (second compound 0.1 µM, first compound 0.949 µM)?
Answer: 37.8%

Question: What about the viability, T/C (second compound 0.1 µM, first compound 3 µM) of the same compound?
Answer: 36.9%

Question: And the viability, T/C (second compound 0.316 µM, first compound 0.00949 µM)?
Answer: 67.3%

Question: And the viability, T/C (second compound 0.316 µM, first compound 0.03 µM)?
Answer: 54.5%

Question: And the viability, T/C (second compound 0.316 µM, first compound 0.0949 µM)?
Answer: 42.1%

Question: And the viability, T/C (second compound 0.316 µM, first compound 0.3 µM)?
Answer: 36.2%

Question: And the viability, T/C (second compound 0.316 µM, first compound 0.949 µM)?
Answer: 35.6%

Question: What about the viability, T/C (second compound 0.316 µM, first compound 3 µM) of the same compound?
Answer: 32.4%

Question: And the viability, T/C (second compound 1 µM, first compound 0.00949 µM)?
Answer: 64.8%

Question: What about the viability, T/C (second compound 1 µM, first compound 0.03 µM) of the same compound?
Answer: 54.1%

Question: And the viability, T/C (second compound 1 µM, first compound 0.0949 µM)?
Answer: 48%

Question: And the viability, T/C (second compound 1 µM, first compound 0.3 µM)?
Answer: 36.7%

Question: What about the viability, T/C (second compound 1 µM, first compound 0.949 µM) of the same compound?
Answer: 34.1%

Question: And the viability, T/C (second compound 1 µM, first compound 3 µM)?
Answer: 34.1%

Question: What about the viability, T/C (second compound 3.16 µM, first compound 0.00949 µM) of the same compound?
Answer: 59.5%

Question: What about the viability, T/C (second compound 3.16 µM, first compound 0.03 µM) of the same compound?
Answer: 50.1%

Question: And the viability, T/C (second compound 3.16 µM, first compound 0.0949 µM)?
Answer: 36.1%

Question: And the viability, T/C (second compound 3.16 µM, first compound 0.3 µM)?
Answer: 38.2%

Question: What about the viability, T/C (second compound 3.16 µM, first compound 0.949 µM) of the same compound?
Answer: 28.7%

Question: What about the viability, T/C (second compound 3.16 µM, first compound 3 µM) of the same compound?
Answer: 31.4%

Question: And the viability, T/C (second compound 10 µM, first compound 0.00949 µM)?
Answer: 61%

Question: And the viability, T/C (second compound 10 µM, first compound 0.03 µM)?
Answer: 54.7%

Question: And the viability, T/C (second compound 10 µM, first compound 0.0949 µM)?
Answer: 35.7%

Question: What about the viability, T/C (second compound 10 µM, first compound 0.3 µM) of the same compound?
Answer: 33.3%

Question: What about the viability, T/C (second compound 10 µM, first compound 0.949 µM) of the same compound?
Answer: 28.6%

Question: What about the viability, T/C (second compound 10 µM, first compound 3 µM) of the same compound?
Answer: 28.9%

Question: How did the IC50 (second compound 0.1 µM) turn out when `Cn1ncnc1C1c2n[nH]c(=O)c3cc(F)cc(c23)NC1c1ccc(F)cc1` (stereo not given) + CC(CO)NC(=O)c1cc(-c2ccc(Cl)cc2)nn(-c2cnn(C)c2)c1=O was run?
Answer: > 100 nM

Question: And the IC50 (second compound 0.316 µM)?
Answer: > 100 nM

Question: And the IC50 (second compound 1 µM)?
Answer: > 100 nM

Question: And the IC50 (second compound 3.16 µM)?
Answer: > 100 nM

Question: What about the IC50 (second compound 10 µM) of the same compound?
Answer: > 100 nM

Question: And the viability, T/C (second compound 0.1 µM, first compound 0.000316 µM)?
Answer: 89.3%

Question: What about the viability, T/C (second compound 0.1 µM, first compound 0.001 µM) of the same compound?
Answer: 86.6%

Question: What about the viability, T/C [1] of the same compound?
Answer: 99.1%

Question: What about the viability, T/C [2] of the same compound?
Answer: 79.5%

Question: What about the viability, T/C [3] of the same compound?
Answer: 90.2%

Question: What about the viability, T/C [4] of the same compound?
Answer: 80.9%

Question: And the viability, T/C (second compound 0.316 µM, first compound 0.000316 µM)?
Answer: 79.2%

Question: What about the viability, T/C (second compound 0.316 µM, first compound 0.001 µM) of the same compound?
Answer: 95.7%

Question: And the viability, T/C [5]?
Answer: 83.3%

Question: And the viability, T/C [6]?
Answer: 72.6%

Question: And the viability, T/C [7]?
Answer: 83.1%

Question: And the viability, T/C [8]?
Answer: 71.5%

Question: What about the viability, T/C (second compound 1 µM, first compound 0.000316 µM) of the same compound?
Answer: 76.7%

Question: And the viability, T/C (second compound 1 µM, first compound 0.001 µM)?
Answer: 91.2%

Question: What about the viability, T/C [9] of the same compound?
Answer: 88.7%

Question: And the viability, T/C [10]?
Answer: 73.4%

Question: What about the viability, T/C [11] of the same compound?
Answer: 75.1%

Question: What about the viability, T/C [12] of the same compound?
Answer: 74.6%

Question: What about the viability, T/C (second compound 3.16 µM, first compound 0.000316 µM) of the same compound?
Answer: 80.8%

Question: What about the viability, T/C (second compound 3.16 µM, first compound 0.001 µM) of the same compound?
Answer: 83.7%

Question: And the viability, T/C [13]?
Answer: 80.4%

Question: And the viability, T/C [14]?
Answer: 73.9%

Question: What about the viability, T/C [15] of the same compound?
Answer: 71.8%

Question: And the viability, T/C [16]?
Answer: 70.2%

Question: And the viability, T/C (second compound 10 µM, first compound 0.000316 µM)?
Answer: 69.6%

Question: And the viability, T/C (second compound 10 µM, first compound 0.001 µM)?
Answer: 74.3%

Question: What about the viability, T/C [17] of the same compound?
Answer: 79.7%

Question: What about the viability, T/C [18] of the same compound?
Answer: 73.6%

Question: And the viability, T/C [19]?
Answer: 76.8%

Question: And the viability, T/C [20]?
Answer: 66.8%
